Measured values published in patent US11433033B2, “2,4-dinitrophenol formulations and methods using same” (priority 2013, dated 2022).
“Also recorded” adds a separate entry of the source. Like-named read-outs stand apart in the source and are kept apart here.

Columns and labels:
in vivo [1] = assay type: in vivo, Sprague-Dawley rats; settings: for concentration at 5 days: Sprague-Dawley, rat, in vivo, 2 mg/kg per day
in vivo [2] = assay type: in vivo, Sprague-Dawley rats
Method: Rats consumed the concentrations of DNP or ERDNP specified in the text orally, mixed in peanut butter. All rats used for the kinetics studies consumed the entirety of the peanut butter and protonophore within 2 minutes.
DNP concentrations were measured in plasma, liver, kidney, WAT, quadriceps, heart, and brain of Sprague-Dawley rats by LC/MS/MS (Perry, et al., 2013, Cell. Metab. 18:740-8). Rats treated with DNP were sacrificed 1 hour after treatment with DNP, and those treated with ERDNP were sacrificed 8 hours after treatment, as these were the times determined in the plasma DNP studies to represent the peak plasma DNP concentrations (FIGS. 21A-21B). The minimal detection limit of the method was determined to be […], as this was the minimum concentration of solutions of known quantities of DNP in DMSO measured by the method with less than 20% error in each of three replicates.
LC/MS/MS method development and analysis were performed on the Applied Biosystems 4000 QTRAP (Foster City, Calif.), equipped with a Shimadzu ultra fast liquid chromatography (UFLC) system. Electrospray ionization (ESI) source with negative-ion detection was shown as the most sensitive for both qualitative and quantitative analysis of DNP. The quantitative analysis of DNP was monitored in MRM mode with an ion pair (183.0/109.0). The preferred parameters are: curtain gas 25; collision gas 9, probe temperature 480° C.; […]; ion source gas 2 25; declustering potential (DP) −45 V; entrance potential (EP) −10 V; collision energy (CE) −35 V and collision cell exit potential −12 V.
Plasma samples (10-100 μL) were mixed with 2.0 ml pre-chilled chloroform/methanol (v/v: 2/1) containing 0.01% BHT in 5 ml glass vials, to which was added 250 μl water together with 10 nmol DNP-D3 and 10 nmol DNPME-D6 as the internal standards. The mixtures were vortexed for 10 seconds before centrifugation at 4000 rpm for 10 min. The bottom organic layer was carefully collected and dried with a steady stream of nitrogen gas. The residual was reconstituted in 200 μl methanol for LC/MS/MS analysis for DNP and/or DNPME metabolites.
Frozen tissue samples (˜100 mg) were weighed and suspended in 2 ml microcentrifuge tubes with 1.6 ml pre-chilled chloroform/methanol (v/v: 2/1) containing 0.01% BHT and one metal bead, and then added 10 nmol DNP-d3 (Cambridge Isotopes, Andover, Mass.) as the internal standards. The tissue samples were disrupted with Qiagen TissueLyser at 30 Hz for 15 min, and then transferred into 5 ml glass vials, followed by addition of 0.5 ml chloroform and 250 μl water into each samples. The samples were centrifuged at 4000 rpm for 10 min after vortexed for 10 seconds. The bottom organic layer was collected and dried with a gentle flow of nitrogen. The residual was reconstituted in 200 μl methanol for LC/MS/MS analysis of DNP.

high fat fed rats = experiment: Hepatic fluxes (VTCA, VPC, Vfa, VPDH) by [3-13C] lactate infusion, NMR-LC/MS/MS; settings: rat, in vivo
Method: To measure total glutamate enrichment from livers of rats infused with [3-^13C] lactate, ˜100 mg frozen liver were homogenized in 400 μL ice-cold 50% acetonitrile. The samples were centrifuged at 10,000 g for 10 min, and the supernatant was isolated. After overnight storage at 4° C., the samples were centrifuged at 10,000 g for 10 min through a Nanosep 100 k Omega filter (Pall Life Sciences). The flow-through was separated on a hypercarb column (Thermo Scientific; 4.6×100 mm; 5 μm particle size) before ionization for multiple reaction monitoring analysis by LC/MS/MS (Applied Biosystems MDS SCIEX, 4000 Q-TRAP). […]
Spectra were acquired with relaxation time=1 s, dummy scans=32, and number of scans=8,192 per block×3 blocks. Correction factors for differences in T relaxation times were determined from fully relaxed spectra of natural abundance glutamate and glucose solutions. […]
Total glucose enrichment in the NMR extract was determined by derivatizing 20 μL of the NMR extract with 100 μL methanol, then drying overnight in a Speed-Vac. […]
To measure positional alanine enrichment from [3-^13C] lactate infused rat livers, liver samples were extracted for NMR as described above, and the enrichment at [2-^13C] and [3-^13C] alanine was measured by proton-observed, carbon-edited NMR as we have reported (Alves et al., 2011, Hepatology 53:1175-1181). […]

[3] = test system: two-week high fat fed rats; assay type: in vivo, rat
Method: ERDNP was formulated by Emerson Resources Inc. (Malvern, Pa.) with sustained-release ethylcellulose coating. Rats used for the NAFLD reversal studies were fed high fat diet for 2 weeks, at the end of which they were treated for three days with peanut butter to acclimate them to this food. They were then treated daily with ERDNP mixed in peanut butter, or peanut butter vehicle, at the doses specified in the text daily for 5 days. Zucker Diabetic Fatty rats were treated with ERDNP (1 mg/kg) in peanut butter or peanut butter vehicle daily for 14 days. Blood glucose was measured by glucometer (Abbott) from the tail vein every three days.
(§1) Alanine aminotransferase, aspartate aminotransferase, and blood urea nitrogen were measured using the COBAS Mira Plus, and creatinine by LC/MS/MS. Body temperature was measured using a rectal probe (Physitemp Instruments). Histology slides were stained with hematoxylin & eosin, Sirius Red, and TUNEL stains.
(§2) Plasma triglycerides were measured using a Wako reagent. Liver and quadriceps triacylglycerol were extracted using the method of Bligh and Dyer (Bligh & Dyer, 1959, Can. J. Biochem. Physiol. 37:911-7) and quantified spectrophotometrically using a reagent from Diagnostic Chemicals Ltd. Liver and quadriceps DAG and ceramide concentrations were measured by liquid chromatography/mass spectrometry/mass spectrometry (LC/MS/MS) (Yu, et al., 2002, J. Biol. Chem. 277:50230-6), as were acylcarnitine concentrations (An, et al., 2004, Nat. Med. 10:268-74). Very low-density lipoprotein (VLDL) export was measured (Lee, et al., 2011, Hepatology 54:1650-60). Liver acetyl and malonyl CoA concentrations were measured by LC/MS/MS (Hosokawa, et al., 1986, Anal. Biochem. 153:45-9; Roughan, 1994, Biochem. J. 300:355-8).

[4] = test system: rat model of NAFLD and whole body insulin resistance; experiment: Continuous low dose intragastric DNP infusion (2 mg/kg per day, 5 days) in high fat fed rats; assay type: in vivo
Method: For the intragastric DNP infusion studies, rats previously fed high fat diet for 2 weeks were placed in a Covance infusion harness attached to a single-axis counter-balanced swivel mount and a stainless steel one-channel swivel (all from Instech Solomon) to protect the catheters and allow the animals free access to the cage. DNP (2 mg/kg per day) or vehicle (10% dimethylsulfoxide/90% saline vehicle) was infused continuously through the […] for 5 days.
Plasma insulin and glucagon were measured by radioimmunoassay. Plasma glucose was measured enzymatically by the YSI Life Sciences 2700 Select Biochemistry Analyzer. Plasma concentrations of twelve inflammatory markers, adiponectin, and FGF-21 were assessed by ELISA (QIAGEN, Life Technologies, and Millipore, respectively). Liver glycogen was measured by amyloglucosidase digestion (Passonneau & Lauderdale, 1974, Anal. Biochem. 60:405-12). Non-esterified fatty acid concentrations were measured by an enzymatic kit (Wako).
as §2

rats = experiment: Toxicity studies: rectal temperature, liver enzymes, BUN, creatinine, histology; assay type: in vivo, rat
Method: as §1
Liver and kidney samples were prepared and stained with hematoxylin & eosin by the Yale Research Histology core, and analyzed as described (Kleiner et al., 2005, Hepatology 41:1313-1321).

[5] = intragastric DNP 2 mg/kg per day, 5 days

O=[N+]([O-])c1ccc(O)c([N+](=O)[O-])c1 [DNP, 2,4-dinitrophenol]
concentration at 5 days (in vivo [1]; intragastric DNP infusion 2 mg/kg per day, 5 days, rats, read-out: steady state liver DNP concentration): ~1000 nM
concentration at 5 days (in vivo [1]; intragastric DNP infusion 2 mg/kg per day, 5 days, rats, read-out: steady state plasma DNP concentration): ~3000 nM
sustained plasma and tissue concentrations of DNP that reversed hepatic steatosis and insulin resistance (in vivo [1]; continuous intragastric DNP infusion, rat model of NAFLD): 1-3 VM
plasma DNP concentrations, fold lower than the threshold where DNP toxicity is first detected (in vivo [1]; continuous low dose intragastric infusion of DNP): ~100 fold
sustained plasma and liver concentrations of DNP that reversed fatty liver and whole body insulin resistance (in vivo [1]; continuous low dose intragastric infusion, high fat rat model of NAFLD): 1 to 3 µM
DNP concentration in skeletal muscle (in vivo [1]; intragastric DNP infusion 2 mg/kg per day, 5 days, rats): negligible
tissue DNP concentrations after chronic treatment compared with one (or five) daily doses (in vivo [2]; 1 mg/kg per day, rats): no differences; also recorded: did not differ significantly
maximum plasma concentration of DNP, fold higher with DNP treatment than with ERDNP (in vivo [2]; 25 mg/kg DNP versus 1 mg/kg ERDNP): 30 fold
concentration at 8 hours (in vivo [2]; Sprague-Dawley, rat, in vivo, 1 mg/kg, 8 hours after the last of five daily 1 mg/kg doses (FIG. 21J), read-out: DNP concentrations in all tissues following chronic treatment): < 10000 nM
half-life (in vivo [2]; Sprague-Dawley, rat, in vivo, 25 mg/kg, plasma DNP, rats): 8 to 12 h
peak DNP liver concentration (in vivo [2]; dose of DNP 5 mg/kg, rat): ~60 µM
peak plasma DNP concentration (in vivo [2]; dose of DNP 5 mg/kg, rat): ~120 µM
area under the plasma DNP concentration curve (in vivo [2]; oral, rats, 1 mg/kg ERDNP versus 25 mg/kg DNP): 4,311±555
time of maximum concentration of DNP (in vivo [2]; plasma, rats, 1 mg/kg ERDNP versus 25 mg/kg DNP): one
concentrations of DNP found to promote subtle increases in hepatic mitochondrial uncoupling (high fat fed rats): 1 to 5 µM
daily doses that raised ALT ([3]; daily for five days): above 2 mg/kg
daily doses that raised AST concentrations ([3]; daily for five days): above 1 mg/kg
effect of the highest dose on BUN ([3]; daily for five days): raised BUN
lowest effective dose to decrease liver triglyceride ([3]; daily for five days, two-week high fat fed rats): 5 mg/kg
ratio of toxic to therapeutic dose ([3]; rats): 0.4
toxic dose ([3]; rats): 2 mg/kg
liver enzymes, blood urea nitrogen (BUN) or creatinine ([4]; chronic intragastric DNP infusion 2 mg/kg per day): no observed changes
fasting plasma glucose and insulin concentrations [4, 5]: lower
reductions in liver and muscle TAG and diacylglycerol (DAG) content [4, 5]: > 50%
reductions in plasma triglycerides [4, 5]: > 80%
tissue ceramide content [4, 5]: no changes
toxic plasma threshold of DNP (rats; plasma concentration): ~400 µM
relation between plasma DNP concentration and body temperature (rats; rats treated with 10-50 mg/kg DNP): strong correlation
